Measured values published in patent US20250213701A1, “MEDICAMENT FOR TREATING HUMAN TUMOR BASED ON ERF3A-TARGETING PROTEOLYSIS MECHANISM” (SUZHOU DEGEN BIO-MEDICAL CO., LTD., priority 2022, published 2025).

Columns and labels:
Type in all cases: cell-based
SRD5A1 = molecular target: T1, SRD5A1 (Homo sapiens, UniProt P18405); test: Western blot assay in 22Rv1 cells: SRD5A1; conditions: different concentrations at 24 h, and 3 nM at different time points (FIGS. 7 and 8)
T1 construct: The downregulation of SRD5A1, SRD5A3, AR, ARV7, GSPT1 proteins in 22Rv1 cells by C59; endogenous in cells; host or cells: 22Rv1
T1 sequence (P18405 whole entry): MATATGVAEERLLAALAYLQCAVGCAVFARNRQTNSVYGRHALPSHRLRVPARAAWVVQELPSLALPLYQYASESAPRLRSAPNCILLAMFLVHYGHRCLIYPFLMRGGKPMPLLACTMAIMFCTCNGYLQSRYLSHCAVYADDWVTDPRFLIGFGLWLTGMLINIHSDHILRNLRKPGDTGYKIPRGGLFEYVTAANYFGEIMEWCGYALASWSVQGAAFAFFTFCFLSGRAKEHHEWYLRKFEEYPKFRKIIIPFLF
Text: (§1) Example 84: Western Blot Assay of Compound C59 in 22Rv1, PC-3, and HepG2 Cells
(§2) (1) Materials: 22Rv1, PC-3, and HepG2 cell, anti-SRD5A1 antibody (ab167606), anti-SRD5A2 antibody (ab124877), anti-SRD5A3 antibody (PA5-107029), anti-androgen receptor (AR) antibody (CST, No. 5153), anti-GSPT1 antibody (Abcam, ab234433), anti-GADPH antibody (CST, No. 5174), anti-c-Myc antibody (CST, No. 8583), anti-α-tublin antibody (CST, No. 2125), anti-rabbit IgG, HRP-linked antibody (CST, No. 7074), electrophoresis device and membrane transfer device (LIUYI, BEIJING; DYCZ-24DN)
(§3) Cell seeding: 22Rv1 (Cell Bank of the Chinese Academy of Sciences, TCHu100), PC-3 (Cell Bank of the Chinese Academy of Sciences, SCSP-532) and HepG2 cells (Cell Bank of the Chinese Academy of Sciences, TCHu72) were subcultured and trypsinized to prepare 6×10^5 cells/mL suspensions, seeded on 6-well plates (3 mL/well), and cultured overnight in a cell incubator at 5% CO2 and 37° C. […]
(§4) Protein quantification: The protein was quantified using a BCA protein quantification kit. […]
(§5) Western immunoblot assay (or Western blot, WB): SDS-PAGE gel at a proper concentration was prepared according to the molecular weight of the target protein: for example, the concentration of the separation gel was 8% and the concentration of the stacking gel was 5%. The loading volume was adjusted according to the protein quantification results. […]

SRD5A3 = molecular target: T2, SRD5A3 (Homo sapiens, UniProt Q9H8P0); test: Western blot assay in 22Rv1 cells: SRD5A3; conditions: different concentrations at 24 h, and 3 nM at different time points (FIGS. 7 and 8)
T2 construct: The downregulation of SRD5A3 and GSPT1 (eRF3a) proteins in PC-3 and HepG2 cells by C59; endogenous in cells; host or cells: 22Rv1, PC-3, HepG2
T2 sequence (Q9H8P0 1-318): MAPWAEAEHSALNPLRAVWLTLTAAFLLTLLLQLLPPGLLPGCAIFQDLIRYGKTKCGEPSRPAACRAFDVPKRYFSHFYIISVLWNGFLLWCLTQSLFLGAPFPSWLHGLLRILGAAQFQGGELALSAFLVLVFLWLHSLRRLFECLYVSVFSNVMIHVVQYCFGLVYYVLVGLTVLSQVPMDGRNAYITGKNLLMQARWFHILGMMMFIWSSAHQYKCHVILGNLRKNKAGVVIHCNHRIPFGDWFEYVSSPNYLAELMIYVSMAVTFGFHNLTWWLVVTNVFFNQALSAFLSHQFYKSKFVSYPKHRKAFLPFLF
Text: as §1, §2, §3, §4, §5

Hep 3B2.1-7 cells = test: Anti-proliferative toxicity of C63 in tumor cell lines (CCK8): Hep 3B2.1-7; conditions: Homo sapiens, 72 h, 3 days, read-out: Inhibition rate
Experimental: Example 83: Detection of Anti-Proliferative Toxicity of C63 in Some Tumor Cell Lines
Hep3B2.1-7 cells (purchased from the Cell Bank of the Chinese Academy of Sciences, Cat. No. TCHu106) were subcultured in a culture medium (MEM medium+1% penicillin-streptomycin dual-antibiotic solution+10% fetal bovine serum) in an incubator at 5% carbon dioxide and 37° C.
Hep 3B2.1-7 cells were seeded at 2000 cells/well (90 μL) on a 96-well plate and cultured for 24 h.
10 mM compound stock solutions were prepared in DMSO.
The compound stock solution was diluted with DMSO to give DMSO solutions 1-9 at concentrations of 0 μM, 2500 μM, 500 μM, 100 μM, 20 μM, 4 μM, 0.8 μM, 0.16 μM, and 0.032 μM.
2 μL of each of solutions 1-9 was added to 98 μL of the medium to give mixed solutions 11-19 of the compound and the medium.
10 μL of each of solutions 11-19 was added to the above cell seed solution to give a total volume of 100 μL (90 μL+10 μL).
The concentrations of the compound in the wells were 0 μM, 5.0 μM, 1.0 μM, 0.2 μM, 0.04 μM, 0.008 μM, 0.0016 μM, 0.00032 μM, and 0.000064 μM. All concentrations were in triplicate.
After the above-treated cells were cultured for 3 days, 10 μL of the CCK8 solution (DOJINDO, Cat. No. PF725) was added to each well. The plate was incubated in an incubator at 37° C. for 1-4 h and then detected on a microplate reader for the reading at 450 nm.

Row | downregulation of SRD5A1 protein (Western blot) (SRD5A1) | downregulation of SRD5A3 protein (Western blot) (SRD5A3) | SMILES | inhibition at 64 pM (Hep 3B2.1-7 cells; 0.000064 μM) [%] | inhibition at 0.00032 µM (Hep 3B2.1-7 cells; 0.000320 μM) [%] | inhibition at 0.0016 µM (Hep 3B2.1-7 cells; 0.001600 μM) [%] | inhibition at 0.008 µM (Hep 3B2.1-7 cells; 0.008000 μM) [%] | inhibition at 0.04 µM (Hep 3B2.1-7 cells; 0.040000 μM) [%] | inhibition at 0.2 µM (Hep 3B2.1-7 cells; 0.200000 μM) [%] | inhibition at 1 µM (Hep 3B2.1-7 cells; 1.000000 μM) [%] | inhibition at 5 µM (Hep 3B2.1-7 cells; 5.000000 μM) [%]
1 | downregulation | downregulation | C[C@]12C=CC(=O)N[C@@H]1CC[C@@H]1[C@@H]2CC[C@]2(C)[C@@H](C(=O)Nc3cccc(N[C@@H]4CCC[C@@H](Nc5cccc6c5C(=O)N(C5CCC(=O)NC5=O)C6=O)C4)c3)CC[C@@H]12 (stereo partly drawn) [C59, N-(3-(N—(N-(4-(2-(3-(2,6-dioxopiperidine))-isoindole-1,3-dione))-1R,3R-cyclohexanediamine))phenyl)-3-oxo-4-aza-5α-androst-1-ene-17β-carboxamide] |  |  |  |  |  |  |  | 
2 |  |  | C[C@]12C=CC(=O)N[C@@H]1CC[C@@H]1[C@@H]2CC[C@]2(C)[C@@H](C(=O)Nc3cccc(N[C@@H]4CCC[C@@H](Nc5cccc6c5C(=O)N([C@H]5CCC(=O)NC5=O)C6=O)C4)c3)CC[C@@H]12 [C63, N-(3-(N—(N-(4-(2-(3S-(2,6-dioxopiperidine))-isoindole-1,3-dione))-1R,3R-cyclohexanediamine))phenyl)-3-oxo-4-aza-5α-androst-1-ene-17β-carboxamide] | 77.5 | 90.6 | 90.2 | 90.4 | 90.7 | 89.6 | 90.5 | 88.8
